Experimental findings from PubChem BioAssay (NCI) are described below.

Among the test systems are DU-145 prostate; HCC-2998 colon; HOP-92 NSCLC; MDA-MB-231 breast; MDA-MB-435; NCI-H23 lung; SF-268 CNS; SK-OV-3 ovarian; SN12C renal; SW-620 colon.
What all share (test): inhibition of tumour cell growth, NCI panel, 48 h

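Grown in 96-well plates, cells were treated for 48 hours with each compound at five concentrations. Insufficient inhibition: endpoint recorded as highest concentration tested. GI50 marks 50% less growth. TGI is the concentration that stops growth completely.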 Where only a bound is given, the exact number is not on record here.

On to `O=C1C(=Cc2ccco2)C(=O)C2CCCCC12` (stereo not given), for which the TGI in the assay on DU-145 prostate, with HCC-2998 colon, in the assay with HOP-92 NSCLC, in the assay on MDA-MB-231 breast, with MDA-MB-435 and in the assay on NCI-H23 lung was more than 100 µM throughout. The TGI with SF-268 CNS, in the assay on SK-OV-3 ovarian, in the assay on SN12C renal and in the assay on SW-620 colon was more than 100 µM each time.
As for `COc1ccc(CNc2nc3cc(N)cc(N)c3nc2-c2ccccc2)cc1OC`, the GI50 in the assay on DU-145 prostate was 41 µM; in the assay on HCC-2998 colon, 17 µM; with HOP-92 NSCLC, 13.4 µM; with MDA-MB-231 breast, 4.27 µM; with MDA-MB-435, 2.07 µM; in the assay with NCI-H23 lung it was 16.9 µM. Also, the GI50 was 16.6 µM in the assay on SF-268 CNS, 22.8 µM with SK-OV-3 ovarian, 14 µM in the assay on SN12C renal and 7.77 µM in the assay with SW-620 colon. Moreover, the TGI in the assay with DU-145 prostate is more than 93.6 µM; in the assay on HCC-2998 colon, 39.8 µM; in the assay with HOP-92 NSCLC, 29.8 µM; in the assay on MDA-MB-231 breast, 10.6 µM; in the assay on MDA-MB-435 it was 4.05 µM; in the assay on NCI-H23 lung, 35.7 µM. Moreover, the TGI in the assay with SF-268 CNS is 65.9 µM; in the assay on SK-OV-3 ovarian, 45.6 µM; in the assay on SN12C renal, 27.9 µM; with SW-620 colon it was more than 58.9 µM.
Consider `S=c1nc(Oc2ccc(Cl)c(Cl)c2)[nH]c(=S)[nH]1`, for which the TGI in the assay with DU-145 prostate is more than 100 µM; with HCC-2998 colon it was 37.9 µM; in the assay on HOP-92 NSCLC, 60.9 µM; in the assay with MDA-MB-231 breast, more than 100 µM; with MDA-MB-435 it was more than 100 µM; in the assay on NCI-H23 lung it was more than 63.3 µM. For the same compound, the TGI with SF-268 CNS is more than 81.8 µM; with SK-OV-3 ovarian, more than 100 µM; in the assay with SN12C renal, more than 95.6 µM; with SW-620 colon, more than 100 µM.
`CCN1C(=O)N(CC)C2C1NN=c1s/c(=C3\C(=O)N(CC(C)C)c4ccccc43)c(=O)n12` (stereo not given): the GI50 in the assay with DU-145 prostate was 0.777 µM; in the assay on HCC-2998 colon, 2.38 µM; in the assay with HOP-92 NSCLC, 4.04 µM; with MDA-MB-231 breast, 2.05 µM; in the assay on MDA-MB-435 it was 0.224 µM; in the assay on NCI-H23 lung, 2.19 µM. In addition, the GI50 with SF-268 CNS was 1.32 µM; in the assay with SK-OV-3 ovarian it was 0.493 µM; in the assay on SN12C renal it was 1.95 µM; with SW-620 colon, 0.444 µM. In addition, the TGI with DU-145 prostate is more than 30.4 µM; in the assay with HCC-2998 colon, more than 100 µM; in the assay with HOP-92 NSCLC, more than 64.1 µM; with MDA-MB-231 breast, more than 30.6 µM; with MDA-MB-435, 0.521 µM; with NCI-H23 lung, more than 100 µM. Moreover, the TGI in the assay with SF-268 CNS was more than 59.9 µM; in the assay with SK-OV-3 ovarian, 39.8 µM; in the assay on SN12C renal, more than 100 µM; with SW-620 colon it was more than 100 µM.
For `N#CC1=C(N)OC2=C(COc3ccc(F)cc32)C1c1ccc(Cl)cc1` (stereo not given), the GI50 is 44.1 µM with DU-145 prostate; 25.6 µM in the assay on HCC-2998 colon; 30.5 µM in the assay with HOP-92 NSCLC; 26.1 µM in the assay on MDA-MB-231 breast; 28.5 µM with MDA-MB-435; 29.6 µM in the assay on NCI-H23 lung. Moreover, the GI50 with SF-268 CNS is 42.8 µM; with SK-OV-3 ovarian it was 53.1 µM; in the assay with SN12C renal it was 28.3 µM; in the assay on SW-620 colon, 53.3 µM. Further, the TGI in the assay with DU-145 prostate is more than 100 µM; with HCC-2998 colon, 60.2 µM; with HOP-92 NSCLC, more than 100 µM; in the assay with MDA-MB-231 breast, 88 µM; with MDA-MB-435, more than 100 µM; in the assay on NCI-H23 lung, 93.6 µM. The TGI in the assay with SF-268 CNS, with SK-OV-3 ovarian, in the assay on SN12C renal and in the assay on SW-620 colon was more than 100 µM throughout.
`N=C1c2nc3n(c2C(=O)c2nc4n(c21)CCCC4)CCCC3`: the GI50 in the assay on DU-145 prostate was 1.5 µM; in the assay on HCC-2998 colon, 3.74 µM; in the assay on HOP-92 NSCLC, 52.8 µM; in the assay on MDA-MB-231 breast it was 33.6 µM; with MDA-MB-435 it was 0.235 µM; with NCI-H23 lung it was 1.37 µM. The GI50 in the assay on SF-268 CNS is 11.9 µM; with SK-OV-3 ovarian, 34.2 µM; with SN12C renal, 1.58 µM; in the assay with SW-620 colon it was 3.8 µM. The TGI with DU-145 prostate was 2.9 µM; in the assay with HCC-2998 colon it was 12.8 µM; in the assay with HOP-92 NSCLC, more than 100 µM; with MDA-MB-231 breast, more than 100 µM; with MDA-MB-435 it was 0.504 µM; in the assay on NCI-H23 lung, 3.86 µM. The TGI in the assay with SF-268 CNS was more than 74.9 µM; in the assay on SK-OV-3 ovarian, more than 100 µM; in the assay with SN12C renal, 3.12 µM; with SW-620 colon it was 24.4 µM.
Take `Cn1ccc2c(NCCN)c3c(c(NCCN)c21)C(=O)c1ccccc1C3=O`: the GI50 in the assay with DU-145 prostate was 0.453 µM; with HCC-2998 colon, 1.64 µM; with HOP-92 NSCLC, 0.718 µM; in the assay with MDA-MB-231 breast, 0.619 µM; with MDA-MB-435 it was 1.54 µM; with NCI-H23 lung, 1.68 µM. Moreover, the GI50 was 1.47 µM in the assay on SF-268 CNS, 20.3 µM with SK-OV-3 ovarian, 0.465 µM with SN12C renal and 0.514 µM in the assay on SW-620 colon. The TGI in the assay on DU-145 prostate stood at 6.05 µM; with HCC-2998 colon, 3.99 µM; in the assay on HOP-92 NSCLC, 2.58 µM; in the assay with MDA-MB-231 breast, 2.38 µM; in the assay with MDA-MB-435, 5.59 µM; with NCI-H23 lung, 4.07 µM. Also, the TGI worked out at 7.11 µM in the assay with SF-268 CNS, 42.4 µM with SK-OV-3 ovarian, 1.61 µM in the assay with SN12C renal and 2.59 µM in the assay with SW-620 colon.
Take `C=C1CC[C@@]2(C#N)[C@H]3[C@H](CC[C@@H]2C)[C@@H](C)C[C@@H](CC(C)(C)C#N)[C@H]13`: the GI50 in the assay with DU-145 prostate was 0.337 µM; with HCC-2998 colon, 2.95 µM; in the assay on HOP-92 NSCLC it was 0.2 µM; in the assay with MDA-MB-231 breast, 6.1 µM; in the assay on MDA-MB-435 it was 2.06 µM; in the assay with NCI-H23 lung, 1.06 µM. The GI50 with SF-268 CNS is 2.34 µM; with SK-OV-3 ovarian, 6.6 µM; in the assay with SN12C renal, 5.71 µM; in the assay on SW-620 colon, 4.65 µM. The TGI came to 16.2 µM in the assay with DU-145 prostate; 20.6 µM with HCC-2998 colon; 0.68 µM in the assay with HOP-92 NSCLC; 35.8 µM in the assay on MDA-MB-231 breast; 95.7 µM in the assay with MDA-MB-435; 32.6 µM in the assay on NCI-H23 lung. The TGI in the assay on SF-268 CNS is 35.3 µM; in the assay with SK-OV-3 ovarian it was 77.9 µM; in the assay on SN12C renal, 64.8 µM; in the assay on SW-620 colon, 22.1 µM.
